Experimental data taken from PubChem BioAssay AID1259407 (Chemical Carcinogenesis Research Information System (CCRIS), 2018).
The source made the active and inactive calls. No rule for the calls is given here.

System: CCRIS mutagenicity, Ames/micronucleus/aberration tests
Test: CCRIS mutagenicity studies
[1] = Test System: AMES SALMONELLA TYPHIMURIUM, Strain/Indicator: TA98, Metabolic Activation: NONE, Method: PREINCUBATION
[2] = Test System: AMES SALMONELLA TYPHIMURIUM, Strain/Indicator: TA98, Metabolic Activation: NONE, Method: STANDARD PLATE
[3] = Test System: AMES SALMONELLA TYPHIMURIUM, Strain/Indicator: TA98, Metabolic Activation: RAT, LIVER, S-9, AROCLOR 1254, Method: STANDARD PLATE
[4] = Test System: AMES SALMONELLA TYPHIMURIUM, Strain/Indicator: TA100, Metabolic Activation: NONE, Method: PREINCUBATION
[5] = Test System: AMES SALMONELLA TYPHIMURIUM, Strain/Indicator: TA100, Metabolic Activation: NONE, Method: STANDARD PLATE
[6] = Test System: AMES SALMONELLA TYPHIMURIUM, Strain/Indicator: TA100, Metabolic Activation: RAT, LIVER, S-9, AROCLOR 1254, Method: PREINCUBATION
[7] = Test System: AMES SALMONELLA TYPHIMURIUM, Strain/Indicator: TA100, Metabolic Activation: RAT, LIVER, S-9, AROCLOR 1254, Method: STANDARD PLATE
[8] = Test System: AMES SALMONELLA TYPHIMURIUM, Strain/Indicator: TA1535, Metabolic Activation: NONE, Method: PREINCUBATION
[9] = Test System: AMES SALMONELLA TYPHIMURIUM, Strain/Indicator: TA1537, Metabolic Activation: NONE, Method: PREINCUBATION
[10] = Test System: AMES SALMONELLA TYPHIMURIUM, Strain/Indicator: TA97, Metabolic Activation: NONE, Method: STANDARD PLATE
[11] = Test System: AMES SALMONELLA TYPHIMURIUM, Strain/Indicator: TA97, Metabolic Activation: RAT, LIVER, S-9, AROCLOR 1254, Method: STANDARD PLATE
[12] = Test System: AMES SALMONELLA TYPHIMURIUM, Strain/Indicator: TA1535, Metabolic Activation: NONE, Method: STANDARD PLATE
[13] = Test System: AMES SALMONELLA TYPHIMURIUM, Strain/Indicator: TA1535, Metabolic Activation: RAT, LIVER, S-9, AROCLOR 1254, Method: STANDARD PLATE
[14] = Test System: AMES SALMONELLA TYPHIMURIUM, Strain/Indicator: TA1537, Metabolic Activation: NONE, Method: STANDARD PLATE
[15] = Test System: AMES SALMONELLA TYPHIMURIUM, Strain/Indicator: TA1537, Metabolic Activation: RAT, LIVER, S-9, AROCLOR 1254, Method: STANDARD PLATE

O=C(O)/C=C/c1ccccc1[N+](=O)[O-]
mutagenic call [1]: inactive; negative | mutagenic call [2]: inactive; negative | mutagenic call [3]: inactive; negative | mutagenic call (Test System: AMES SALMONELLA TYPHIMURIUM, Strain/Indicator: TA98, Method: PREINCUBATION): inactive; negative | mutagenic call [4]: inactive; negative | mutagenic call [5]: inactive; negative | mutagenic call [6]: inactive; negative | mutagenic call [7]: inactive; negative | mutagenic call (Test System: AMES SALMONELLA TYPHIMURIUM, Strain/Indicator: TA100, Method: PREINCUBATION): inactive; negative | mutagenic call [8]: inactive; negative | mutagenic call (Test System: AMES SALMONELLA TYPHIMURIUM, Strain/Indicator: TA1535, Method: PREINCUBATION): inactive; negative | mutagenic call [9]: inactive; negative | mutagenic call (Test System: AMES SALMONELLA TYPHIMURIUM, Strain/Indicator: TA1537, Method: PREINCUBATION): inactive; negative | mutagenic call (Test System: AMES SALMONELLA TYPHIMURIUM, Strain/Indicator: TA1538, Metabolic Activation: NONE, Method: PREINCUBATION): inactive; negative | mutagenic call (Test System: AMES SALMONELLA TYPHIMURIUM, Strain/Indicator: TA1538, Method: PREINCUBATION): inactive; negative

CCOC(Cl)CCl (stereo unspecified)
mutagenic call (End Point: IN VITRO CHROMOSOMAL ABERRATIONS, Test System: CHL CELLS, Metabolic Activation: NONE): active; positive (structural and ploidy changes) | mutagenic call (End Point: IN VITRO CHROMOSOMAL ABERRATIONS, Test System: CHL CELLS, Metabolic Activation: RAT, LIVER, S-9, SODIUM PHENOBARBITAL AND 5,6-BENZOFLAVONE): active; positive (structural changes)

NC[N+](=O)[O-]
mutagenic call [6]: inactive; negative | mutagenic call (Test System: AMES SALMONELLA TYPHIMURIUM, Strain/Indicator: TA1535, Metabolic Activation: RAT, LIVER, S-9, AROCLOR 1254, Method: PREINCUBATION): inactive; negative

Nc1ncnc2c1ncn2Cc1ccccc1
mutagenic call [10]: inactive; negative | mutagenic call [11]: inactive; negative | mutagenic call [2]: inactive; negative | mutagenic call [3]: active; positive | mutagenic call [5]: inactive; negative | mutagenic call [7]: inactive; negative

CC(Oc1ccc(Cl)cc1Cl)C(=O)O (stereo unspecified)
mutagenic call [10]: inactive; negative | mutagenic call [11]: inactive; negative | mutagenic call [2]: inactive; negative | mutagenic call [3]: inactive; negative | mutagenic call [5]: inactive; negative | mutagenic call [7]: inactive; negative | mutagenic call (Test System: AMES SALMONELLA TYPHIMURIUM, Strain/Indicator: TA102, Metabolic Activation: NONE, Method: STANDARD PLATE): inactive; negative | mutagenic call (Test System: AMES SALMONELLA TYPHIMURIUM, Strain/Indicator: TA102, Metabolic Activation: RAT, LIVER, S-9, AROCLOR 1254, Method: STANDARD PLATE): inactive; negative

O=[Si]=O
mutagenic call [2]: inactive; negative | mutagenic call [3]: inactive; negative | mutagenic call [5]: inactive; negative | mutagenic call [7]: inactive; negative | mutagenic call [12]: inactive; negative | mutagenic call [13]: inactive; negative | mutagenic call [14]: inactive; negative | mutagenic call [15]: inactive; negative | mutagenic call (Test System: AMES SALMONELLA TYPHIMURIUM, Strain/Indicator: TA1538, Metabolic Activation: NONE, Method: STANDARD PLATE): inactive; negative | mutagenic call (Test System: AMES SALMONELLA TYPHIMURIUM, Strain/Indicator: TA1538, Metabolic Activation: RAT, LIVER, S-9, AROCLOR 1254, Method: STANDARD PLATE): inactive; negative | mutagenic call (Test System: E. COLI, Strain/Indicator: WP2, Metabolic Activation: NONE, Method: STANDARD PLATE): inactive; negative | mutagenic call (Test System: E. COLI, Strain/Indicator: WP2, Metabolic Activation: RAT, LIVER, S-9, AROCLOR 1254, Method: STANDARD PLATE): inactive; negative | mutagenic call (Test System: HUMAN-HAMSTER HYBRID AL CELLS, Strain/Indicator: AL CELLS (HPRT), Metabolic Activation: NONE, Method: PREINCUBATION): active; positive

C[O+](C)C.[Cl][Sb-]([Cl])([Cl])([Cl])([Cl])[Cl]
mutagenic call [1]: inactive; negative | mutagenic call (Test System: AMES SALMONELLA TYPHIMURIUM, Strain/Indicator: TA98, Metabolic Activation: RAT, LIVER, S-9, AROCLOR 1254 (10%), Method: PREINCUBATION): inactive; negative | mutagenic call [4]: inactive; negative | mutagenic call (Test System: AMES SALMONELLA TYPHIMURIUM, Strain/Indicator: TA1535, Metabolic Activation: HAMSTER, LIVER, S-9, AROCLOR 1254 (10%), Method: PREINCUBATION): inactive; negative | mutagenic call [8]: inactive; negative | mutagenic call (Test System: AMES SALMONELLA TYPHIMURIUM, Strain/Indicator: TA1535, Metabolic Activation: RAT, LIVER, S-9, AROCLOR 1254 (10%), Method: PREINCUBATION): inactive; negative | mutagenic call (Test System: AMES SALMONELLA TYPHIMURIUM, Strain/Indicator: TA1537, Metabolic Activation: HAMSTER, LIVER, S-9, AROCLOR 1254 (10%), Method: PREINCUBATION): inactive; negative | mutagenic call [9]: inactive; negative | mutagenic call (Test System: AMES SALMONELLA TYPHIMURIUM, Strain/Indicator: TA1537, Metabolic Activation: RAT, LIVER, S-9, AROCLOR 1254 (10%), Method: PREINCUBATION): inactive; negative | mutagenic call (Test System: MOUSE LYMPHOMA, Strain/Indicator: L5178Y (TK+/TK-), Metabolic Activation: RAT, LIVER, S-9, AROCLOR 1254, Method: SUSPENSION/PLATE): active; positive. reevaluation of results: positive | mutagenic call (Test System: Mouse lymphoma, Strain/Indicator: L5178Y (tk+/tk-), Metabolic Activation: None, Method: Suspension/plate): inactive; negative

Clc1cccc(C2CO2)c1 (stereo unspecified)
mutagenic call (Test System: E. COLI, Strain/Indicator: WP2 UVRA, Metabolic Activation: NONE, Method: STANDARD PLATE): active; positive

COc1ccc(C(=O)n2ncc(Cl)c(Cl)c2=O)cc1
mutagenic call [2]: inactive; negative | mutagenic call [3]: inactive; negative | mutagenic call [5]: inactive; negative | mutagenic call [7]: inactive; negative | mutagenic call [12]: inactive; negative | mutagenic call [13]: inactive; negative | mutagenic call [14]: inactive; negative | mutagenic call [15]: inactive; negative
